Test results taken from ChEMBL document CHEMBL1287675, “Substituted spiro [2.3'] oxindolespiro [3.2″]-5,6-dimethoxy-indane-1″-one-pyrrolidine analogue as inhibitors of acetylcholinesterase” (Bioorg Med Chem Lett, 2010).
pIC50: −log10 of the molar value.

biological target: Acetylcholinesterase (Homo sapiens, UniProt P22303); test: Inhibition of human acetyl cholinesterase by Ellmann's method
Sequence (P22303 whole entry): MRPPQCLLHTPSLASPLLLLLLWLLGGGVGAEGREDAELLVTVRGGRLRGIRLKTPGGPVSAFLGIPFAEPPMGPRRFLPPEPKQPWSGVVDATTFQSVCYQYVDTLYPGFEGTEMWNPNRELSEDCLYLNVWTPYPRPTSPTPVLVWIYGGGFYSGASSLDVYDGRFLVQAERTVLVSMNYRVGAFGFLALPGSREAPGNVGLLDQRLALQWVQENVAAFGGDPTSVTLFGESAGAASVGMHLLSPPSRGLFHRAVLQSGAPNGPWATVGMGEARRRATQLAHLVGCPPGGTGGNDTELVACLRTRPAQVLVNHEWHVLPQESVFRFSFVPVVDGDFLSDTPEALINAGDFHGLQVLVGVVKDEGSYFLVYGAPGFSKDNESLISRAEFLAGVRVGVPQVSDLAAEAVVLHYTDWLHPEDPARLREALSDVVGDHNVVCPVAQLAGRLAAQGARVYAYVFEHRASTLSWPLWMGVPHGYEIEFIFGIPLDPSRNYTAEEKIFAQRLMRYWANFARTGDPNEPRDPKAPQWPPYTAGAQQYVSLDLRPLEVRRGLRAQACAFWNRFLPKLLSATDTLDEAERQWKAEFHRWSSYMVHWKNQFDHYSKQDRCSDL

Compound	pIC50
COc1ccc(C2CN(C)C3(C(=O)Nc4ccc([N+](=O)[O-])cc43)C23Cc2cc(OC)c(OC)cc2C3=O)cc1OC (centres undefined)	5.21
COc1ccc(C2C(c3ccccc3)NC3(C(=O)Nc4ccccc43)C23Cc2cc(OC)c(OC)cc2C3=O)cc1OC (centres undefined)	5.28
COc1cc2c(cc1OC)C(=O)C1(C2)C(c2ccc(F)cc2)C(c2ccccc2)NC12C(=O)Nc1ccc(Cl)cc12 (centres undefined)	5.01
COc1ccc(C2C(c3ccccc3)NC3(C(=O)Nc4ccc(Cl)cc43)C23Cc2cc(OC)c(OC)cc2C3=O)cc1OC (centres undefined)	5.08
COc1cc2c(cc1OC)C(=O)C1(C2)C(c2ccccc2Cl)C(c2ccccc2)NC12C(=O)Nc1ccc(Cl)cc12 (centres undefined)	4.91
COc1cc2c(cc1OC)C(=O)C1(C2)C(c2ccc(F)cc2)C(c2ccccc2)NC12C(=O)Nc1ccc([N+](=O)[O-])cc12 (centres undefined)	4.84
COc1ccc(C2C(c3ccccc3)NC3(C(=O)Nc4ccc([N+](=O)[O-])cc43)C23Cc2cc(OC)c(OC)cc2C3=O)cc1OC (centres undefined)	4.81
COc1cc2c(cc1OC)C(=O)C1(C2)C(c2ccccc2)C(c2ccccc2)NC12C(=O)Nc1ccc([N+](=O)[O-])cc12 (centres undefined)	5.43
COc1cc2c(cc1OC)C(=O)C1(C2)C(c2ccccc2Cl)C(c2ccccc2)NC12C(=O)Nc1ccc([N+](=O)[O-])cc12 (centres undefined)	5.38
COc1cc2c(cc1OC)C(=O)C1(C2)C(c2ccc(F)cc2)CN(C)C12C(=O)Nc1ccccc12 (centres undefined)	5.67
COc1ccc(C2CN(C)C3(C(=O)Nc4ccccc43)C23Cc2cc(OC)c(OC)cc2C3=O)cc1OC (centres undefined)	5.38
COc1cc2c(cc1OC)C(=O)C1(C2)C(c2ccccc2)CN(C)C12C(=O)Nc1ccccc12 (centres undefined)	5.51
COc1cc2c(cc1OC)C(=O)C1(C2)C(c2ccccc2Cl)CN(C)C12C(=O)Nc1ccccc12 (centres undefined)	5.37
COc1cc2c(cc1OC)C(=O)C1(C2)C(c2ccc(F)cc2)CN(C)C12C(=O)Nc1ccc(Cl)cc12 (centres undefined)	5.43
COc1ccc(C2CN(C)C3(C(=O)Nc4ccc(Cl)cc43)C23Cc2cc(OC)c(OC)cc2C3=O)cc1OC (centres undefined)	5.38
COc1cc2c(cc1OC)C(=O)C1(C2)C(c2ccccc2)CN(C)C12C(=O)Nc1ccc(Cl)cc12 (centres undefined)	4.95
COc1cc2c(cc1OC)C(=O)C1(C2)C(c2ccccc2Cl)CN(C)C12C(=O)Nc1ccc(Cl)cc12 (centres undefined)	5.18
COc1cc2c(cc1OC)C(=O)C1(C2)C(c2ccc(F)cc2)CN(C)C12C(=O)Nc1ccc([N+](=O)[O-])cc12 (centres undefined)	5.07
COc1cc2c(cc1OC)C(=O)C1(C2)C(c2ccccc2)CN(C)C12C(=O)Nc1ccc([N+](=O)[O-])cc12 (centres undefined)	4.88
COc1cc2c(cc1OC)C(=O)C1(C2)C(c2ccccc2Cl)CN(C)C12C(=O)Nc1ccc([N+](=O)[O-])cc12 (centres undefined)	5.12
COc1cc2c(cc1OC)C(=O)C1(C2)C(c2ccc(F)cc2)C(c2ccccc2)NC12C(=O)Nc1ccccc12 (centres undefined)	5.16
COc1cc2c(cc1OC)C(=O)C1(C2)C(c2ccccc2)C(c2ccccc2)NC12C(=O)Nc1ccccc12 (centres undefined)	5.29
COc1cc2c(cc1OC)C(=O)C1(C2)C(c2ccccc2Cl)C(c2ccccc2)NC12C(=O)Nc1ccccc12 (centres undefined)	5.14
COc1cc2c(cc1OC)C(=O)C1(C2)C(c2ccccc2)C(c2ccccc2)NC12C(=O)Nc1ccc(Cl)cc12 (centres undefined)	5.14
